Experiment [1] deals with Human immunodeficiency virus 1. The experiment can be described thus: Antiviral activity against saquinavir-resistant HIV1 NL4-3. As to conditions: Human immunodeficiency virus 1, NL4-3. The class given is functional, organism-based.
Experiment [2] deals with Human immunodeficiency virus 1. The experiment can be described thus: Antiviral activity against lopinavir-resistant HIV1 NL4-3. As to conditions: Human immunodeficiency virus 1, NL4-3. The class given is functional, organism-based.
For experiment [3], the system named is Human immunodeficiency virus 1. Put plainly: Antiviral activity against indinavir-resistant HIV1 NL4-3. As to conditions: Human immunodeficiency virus 1, NL4-3. It is filed as functional, organism-based.
Experiment [4] deals with Human immunodeficiency virus 1. The experiment can be described thus: Antiviral activity against multidrug-resistant HIV1 isolate JSL infected in PHA-stimulated human PBMC assessed as inhibition of p24 […] protein production. The class given is functional, organism-based. The note with it: Human immunodeficiency virus 1, isolate JSL.
Experiment [5] concerns Human immunodeficiency virus 1. The experiment can be described thus: Antiviral activity against multidrug-resistant HIV1 isolate TM infected in PHA-stimulated human PBMC assessed as inhibition of p24 […] protein production. It is filed as functional, organism-based. As to conditions: Human immunodeficiency virus 1, isolate TM.
Experiment [6] concerns Human immunodeficiency virus 1. The experiment can be described thus: Antiviral activity against multidrug-resistant HIV1 isolate B infected in PHA-stimulated human PBMC assessed as inhibition of p24 […] protein production. It is filed as functional, organism-based. As to conditions: Human immunodeficiency virus 1, isolate B.
Experiment [7] has as its system Human immunodeficiency virus 1. Put plainly: Antiviral activity against multidrug-resistant HIV1 isolate G infected in PHA-stimulated human PBMC assessed as inhibition of p24 […] protein production. The class given is functional, organism-based. The note with it: Human immunodeficiency virus 1, isolate G.
The test system of experiment [8] is Human immunodeficiency virus 1. Put plainly: Selectivity ratio of IC50 for multidrug-resistant HIV1 isolate MM to IC50 for wild type HIV1 isolate ERS104pre. The class given is functional.
Experiment [9] deals with Human immunodeficiency virus 1. The experiment can be described thus: Selectivity ratio of IC50 for multidrug-resistant HIV1 isolate C to IC50 for wild type HIV1 isolate ERS104pre. It is filed as functional.
For experiment [10], the system named is Human immunodeficiency virus 1. The experiment can be described thus: Antiviral activity against multidrug-resistant HIV1 isolate MM infected in PHA-stimulated human PBMC assessed as inhibition of p24 […] protein production. It is filed as functional, organism-based. As to conditions: Human immunodeficiency virus 1, isolate MM.
In experiment [11] the test system is Human immunodeficiency virus 1. The experiment can be described thus: Selectivity ratio of IC50 for multidrug-resistant HIV1 isolate JSL to IC50 for wild type HIV1 isolate ERS104pre. The class given is functional.
In experiment [12] the test system is Human immunodeficiency virus 1. The experiment can be described thus: Selectivity ratio of IC50 for multidrug-resistant HIV1 isolate TM to IC50 for wild type HIV1 isolate ERS104pre. It is filed as functional.
Experiment [13] deals with Human immunodeficiency virus 1. Put plainly: Selectivity ratio of IC50 for multidrug-resistant HIV1 isolate B to IC50 for wild type HIV1 isolate ERS104pre. It is filed as functional.
In experiment [14] the test system is Human immunodeficiency virus 1. Put plainly: Selectivity ratio of IC50 for multidrug-resistant HIV1 isolate G to IC50 for wild type HIV1 isolate ERS104pre. The class given is functional.
The test system of experiment [15] is Human immunodeficiency virus 1. Put plainly: Antiviral activity against wild type HIV1 isolate ERS104pre infected in PHA-stimulated human PBMC assessed as inhibition of p24 […] protein production. The class given is functional, organism-based. As to conditions: Human immunodeficiency virus 1, isolate ERS104pre.
Experiment [16] deals with Human immunodeficiency virus 1. The experiment can be described thus: Antiviral activity against multidrug-resistant HIV1 isolate C infected in PHA-stimulated human PBMC assessed as inhibition of p24 […] protein production. It is filed as functional, organism-based. The note with it: Human immunodeficiency virus 1, isolate C.

Bounds are passed on as bounds.

Take `COc1ccc2c(c1)OCCC=CCCCCN(C[C@@H](O)[C@H](Cc1ccccc1)NC(=O)O[C@H]1CO[C@H]3OCC[C@H]31)S2(=O)=O`: the half-maximal inhibitory concentration (IC50) in [1], in experiment [2] and in [3] was 20 nM in each case.

`CC(C)(C)NC(=O)[C@@H]1CN(Cc2cccnc2)CCN1C[C@@H](O)C[C@@H](Cc1ccccc1)C(=O)N[C@H]1c2ccccc2C[C@H]1O.O`: the IC50 – broadly, the midpoint of a concentration-inhibition curve – in experiment [4] was over 1000 nM; in [5] it was over 1000 nM; in [6], over 1000 nM; in experiment [7] it was 340 nM; in experiment [10], over 1000 nM; in experiment [15] it was 43 nM. In addition, in experiment [16], the IC50 is over 1000 nM. The “Ratio IC50” value is on record as over 23 in experiment [8]; over 23 in experiment [9]; over 23 in experiment [11]; over 23 in experiment [12]; over 23 in experiment [13]; 5 in experiment [14].

The values above are taken from ChEMBL document CHEMBL1156053, “Design, synthesis, protein-ligand X-ray structure, and biological evaluation of a series of novel macrocyclic human immunodeficiency virus-1 protease inhibitors to combat drug resistance” (J Med Chem, 2009).
